Source: patent publication US9399638B2, “Substituted pyridine compounds as CRAC modulators” (LUPIN LIMITED, priority 2012, dated 2016)

System: IL-2 secretion by Jurkat T cells
Experiment: Inhibition of IL-2 secretion
Format: cell-based
Conditions: Homo sapiens; Jurkat T cells stimulated with PHA, 20 to 24 hours, IL-2 by ELISA
Protocol: The CRAC channel modulatory activity of the compounds were thus evaluated by measuring the secretion of IL-2 by antigen stimulated T-cells in vitro. Alternatively, such activity can also be evaluated by assay methods known to one skilled in the art.
Inhibition of IL-2 secretion: Jurkat T cells were seeded at a density of 0.5 to 1 million cells per well in RPMI medium. Test compounds from this invention were added to the cells at different concentrations. This was followed by the addition of PHA, a T cell mitogen after 10 minutes. The cells were then incubated for 20 to 24 hours in a CO2 incubator at 37° C. After incubation with the compounds, cells were centrifuged, the supernatant was collected and processed for ELISA to quantitate the amount of IL-2 secreted. A commercial ELISA kit (R&D Systems, Inc. Minneapolis, Minn., USA) was used to estimate the IL-2 concentrations. Amount of IL-2 secreted by cells stimulated with PHA was considered as a 100% maximal signal and the decrease in amount of IL-2 secreted by cells treated with the test compounds was expressed as percent inhibition of the maximal signal. The dose response data was analyzed using 4-parametric sigmoidal dose response (variable slope) curve—fit.

Cc1ncc(-c2nn(C)c(=O)o2)cc1-c1ccc(NC(=O)c2c(F)cccc2F)cc1 [Example 1, 2,6-Difluoro-N-(4-(2-methyl-5-(4-methyl-5-oxo-4,5-dihydro-1,3,4-oxadiazol-2-yl)pyridin-3-yl)phenyl)benzamide]
IC50: 0.1 to 1 µM

CCc1ncc(-c2nn(C)c(=O)o2)cc1-c1ccc(NC(=O)c2c(F)cccc2F)cc1 [Example 2, N-(4-(2-ethyl-5-(4-methyl-5-oxo-4,5-dihydro-1,3,4-oxadiazol-2-yl)pyridin-3-yl)phenyl)-2,6-difluorobenzamide]
IC50: < 0.1 µM

CCc1ncc(-c2nn(C)c(=O)o2)cc1-c1ccc(C(=O)Nc2c(F)cccc2F)cc1 [Example 3, N-(2,6-Difluorophenyl)-4-(2-ethyl-5-(4-methyl-5-oxo-4,5-dihydro-1,3,4-oxadiazol-2-yl)pyridin-3-yl)benzamide]
IC50: 0.1 to 1 µM

Cn1nc(-c2cnc(C3CC3)c(-c3ccc(NC(=O)c4c(F)cccc4F)cc3)c2)oc1=O [Example 4, N-(4-(2-Cyclopropyl-5-(4-methyl-5-oxo-4,5-dihydro-1,3,4-oxadiazol-2-yl)pyridin-3-yl)phenyl)-2,6-difluorobenzamide]
IC50: < 0.1 µM

Cn1nc(-c2cnc(C3CC3)c(-c3ccc(C(=O)Nc4c(F)cccc4F)cc3)c2)oc1=O [Example 5, 4-(2-cyclopropyl-5-(4-methyl-5-oxo-4,5-dihydro-1,3,4-oxadiazol-2-yl)pyridin-3-yl)-N-(2,6-difluorophenyl)benzamide]
IC50: 0.1 to 1 µM

COc1ncc(-c2nn(C)c(=O)o2)cc1-c1ccc(NC(=O)c2c(F)cccc2F)cc1 [Example 6, 2,6-Difluoro-N-(4-(2-methoxy-5-(4-methyl-5-oxo-4,5-dihydro-1,3,4-oxadiazol-2-yl)pyridin-3-yl)phenyl)benzamide]
IC50: < 0.1 µM

Cn1nc(-c2cnc(C(F)(F)F)c(-c3ccc(NC(=O)c4c(F)cccc4F)cc3)c2)oc1=O [Example 7, 2,6-difluoro-N-(4-(5-(4-methyl-5-oxo-4,5-dihydro-1,3,4-oxadiazol-2-yl)-2-(trifluoromethyl)pyridin-3-yl)phenyl)benzamide]
IC50: < 0.1 µM

Cc1cc(NC(=O)c2c(F)cccc2F)ccc1-c1cc(-c2nn(C)c(=O)o2)cnc1C(F)(F)F [Example 8, 2,6-difluoro-N-(3-methyl-4-(5-(4-methyl-5-oxo-4,5-dihydro-1,3,4-oxadiazol-2-yl)-2-(trifluoromethyl)pyridin-3-yl)phenyl)benzamide]
IC50: 0.1 to 1 µM

Cn1nc(-c2cnc(C(F)(F)F)c(-c3ccc(NC(=O)c4c(F)cccc4Cl)cc3)c2)oc1=O [Example 9, 2-Chloro-6-fluoro-N-(4-(5-(4-methyl-5-oxo-4,5-dihydro-1,3,4-oxadiazol-2-yl)-2-(trifluoromethyl)pyridin-n-3-yl)phenyl)benzamide]
IC50: 0.1 to 1 µM

CNc1ncc(-c2nn(C)c(=O)o2)cc1-c1ccc(NC(=O)c2c(F)cccc2F)cc1 [Example 10, 2,6-Difluoro-N-(4-(5-(4-methyl-5-oxo-4,5-dihydro-1,3,4-oxadiazol-2-yl)-2-(methylamino)pyridin-3-yl)phenyl)benzamide]
IC50: < 0.1 µM

CNc1ncc(-c2nn(C)c(=O)o2)cc1-c1ccc(NC(=O)c2c(F)cccc2Cl)cc1 [Example 11, 2-Chloro-6-fluoro-N-(4-(5-(4-methyl-5-oxo-4,5-dihydro-1,3,4-oxadiazol-2-yl)-2-(methylamino)pyridin-3-yl)phenyl)benzamide]
IC50: < 0.1 µM

CNc1ncc(-c2nn(C)c(=O)o2)cc1-c1ccc(NC(=O)c2c(C)cccc2F)cc1 [Example 12, 2-Fluoro-6-methyl-N-(4-(5-(4-methyl-5-oxo-4,5-dihydro-1,3,4-oxadiazol-2-yl)-2-(methylamino)pyridin-3-yl)phenyl)benzamide]
IC50: < 0.1 µM

CNc1ncc(-c2nn(C)c(=O)o2)cc1-c1ccc(NC(=O)c2c(F)cccc2F)cc1C [Example 13, 2,6-Difluoro-N-(3-methyl-4-(5-(4-methyl-5-oxo-4,5-dihydro-1,3,4-oxadiazol-2-yl)-2-(methylamino)pyridin-3-yl)phenyl)benzamide]
IC50: 0.1 to 1 µM

Cn1nc(-c2cncc(-c3ccc(NC(=O)c4c(F)cccc4F)cc3)c2)oc1=O [Example 14, 2,6-Difluoro-N-(4-(5-(4-methyl-5-oxo-4,5-dihydro-1,3,4-oxadiazol-2-yl)pyridin-3-yl)phenyl)benzamide]
IC50: > 1 µM

Cc1cc(NC(=O)c2c(F)cccc2F)ccc1-c1cncc(-c2nn(C)c(=O)o2)c1 [Example 15, 2,6-Difluoro-N-(3-methyl-4-(5-(4-methyl-5-oxo-4,5-dihydro-1,3,4-oxadiazol-2-yl)pyridin-3-yl)phenyl)benzamide]
IC50: < 0.1 µM

CCc1c(-c2ccc(NC(=O)c3c(F)cccc3F)cc2)cncc1-c1nn(C)c(=O)o1 [Example 16, N-(4-(4-Ethyl-5-(4-methyl-5-oxo-4,5-dihydro-1,3,4-oxadiazol-2-yl)pyridin-3-yl)phenyl)-2,6-difluorobenzamide]
IC50: 0.1 to 1 µM

CCc1c(-c2ccc(C(=O)Nc3c(F)cccc3F)cc2)cncc1-c1nn(C)c(=O)o1 [Example 17, N-(2,6-Difluorophenyl)-4-(4-ethyl-5-(4-methyl-5-oxo-4,5-dihydro-1,3,4-oxadiazol-2-yl)pyridin-3-yl)benzamide]
IC50: > 1 µM

CCc1c(-c2nn(C)c(=O)o2)ccnc1-c1ccc(NC(=O)c2c(F)cccc2F)cc1 [Example 18, N-(4-(3-Ethyl-4-(4-methyl-5-oxo-4,5-dihydro-1,3,4-oxadiazol-2-yl)pyridin-2-yl)phenyl)-2,6-difluorobenzamide]
IC50: > 1 µM

CCc1c(-c2nn(C)c(=O)o2)ccnc1-c1ccc(C(=O)Nc2c(F)cccc2F)cc1 [Example 19, N-(2,6-Difluorophenyl)-4-(3-ethyl-4-(4-methyl-5-oxo-4,5-dihydro-1,3,4-oxadiazol-2-yl)pyridin-2-yl)benzamide]
IC50: > 1 µM

Cc1c(-c2nn(C)c(=O)o2)ccnc1-c1ccc(NC(=O)c2c(F)cccc2F)cc1 [Example 20, 2,6-Difluoro-N-(4-(3-methyl-4-(4-methyl-5-oxo-4,5-dihydro-1,3,4-oxadiazol-2-yl)pyridin-2-yl)phenyl)benzamide]
IC50: > 1 µM

CCc1cnc(-c2ccc(NC(=O)c3c(F)cccc3F)cc2)cc1-c1nn(C)c(=O)o1 [Example 21, N-(4-(5-Ethyl-4-(4-methyl-5-oxo-4,5-dihydro-1,3,4-oxadiazol-2-yl)pyridin-2-yl)phenyl)-2,6-difluorobenzamide]
IC50: > 1 µM

CCc1cnc(-c2ccc(C(=O)Nc3c(F)cccc3F)cc2)cc1-c1nn(C)c(=O)o1 [Example 22, N-(2,6-Difluorophenyl)-4-(5-ethyl-4-(4-methyl-5-oxo-4,5-dihydro-1,3,4-oxadiazol-2-yl)pyridin-2-yl)benzamide]
IC50: > 1 µM

Cc1cc(-c2nn(C)c(=O)o2)cc(-c2ccc(NC(=O)c3c(F)cccc3F)cc2)n1 [Example 23, 2,6-Difluoro-N-(4-(6-methyl-4-(4-methyl-5-oxo-4,5-dihydro-1,3,4-oxadiazol-2-yl)pyridin-2-yl)phenyl)benzamide]
IC50: > 1 µM

Cn1nc(-c2cc(Cl)cc(-c3ccc(NC(=O)c4c(F)cccc4F)cc3)n2)oc1=O [Example 24, N-(4-(4-Chloro-6-(4-methyl-5-oxo-4,5-dihydro-1,3,4-oxadiazol-2-yl)pyridin-2-yl)phenyl)-2,6-difluorobenzamide]
IC50: > 1 µM

CCOc1cc(-c2ccc(NC(=O)c3c(F)cccc3F)cc2)nc(-c2nn(C)c(=O)o2)c1 [Example 25, N-(4-(4-Ethoxy-6-(4-methyl-5-oxo-4,5-dihydro-1,3,4-oxadiazol-2-yl)pyridin-2-yl)phenyl)-2,6-difluorobenzamide]
IC50: > 1 µM

Cn1nc(-c2cc(-c3ccc(NC(=O)c4c(F)cccc4F)cc3)ccn2)oc1=O [Example 26, 2,6-Difluoro-N-(4-(2-(4-methyl-5-oxo-4,5-dihydro-1,3,4-oxadiazol-2-yl)pyridin-4-yl)phenyl)benzamide]
IC50: > 1 µM

Cc1cc(-c2nn(C)c(=O)o2)ncc1-c1ccc(NC(=O)c2c(F)cccc2F)cc1 [Example 27, 2,6-Difluoro-N-(4-(4-methyl-6-(4-methyl-5-oxo-4,5-dihydro-1,3,4-oxadiazol-2-yl)pyridin-3-yl)phenyl)benzamide]
IC50: 0.1 to 1 µM

Cc1nnsc1C(=O)Nc1ccc(-c2cc(-c3nn(C)c(=O)o3)cnc2C2CC2)cc1 [Example 28, N-(4-(2-Cyclopropyl-5-(4-methyl-5-oxo-4,5-dihydro-1,3,4-oxadiazol-2-yl)pyridin-3-yl)phenyl)-4-methyl-1,2,3-thiadiazole-5-carboxamide]
IC50: 0.1 to 1 µM

CCc1ncc(-c2nn(C)c(=O)o2)cc1-c1ccc(NC(=O)c2c(F)cccc2F)cc1C [Example 29, N-(4-(2-Ethyl-5-(4-methyl-5-oxo-4,5-dihydro-1,3,4-oxadiazol-2-yl)pyridin-3-yl)-3-methylphenyl)-2,6-difluorobenzamide]
IC50: < 0.1 µM

CCc1ncc(-c2nn(C)c(=O)o2)cc1-c1ccc(NC(=O)c2c(F)cccc2F)nc1 [Example 30, N-(2′-ethyl-5′-(4-methyl-5-oxo-4,5-dihydro-1,3,4-oxadiazol-2-yl)-[3,3′-bipyridin]-6-yl)-2,6-difluorobenzamide]
IC50: < 0.1 µM

CCc1ncc(-c2nn(C)c(=O)o2)cc1-c1ccc(NC(=O)c2c(F)cccc2F)cn1 [Example 31, N-(2′-ethyl-5′-(4-methyl-5-oxo-4,5-dihydro-1,3,4-oxadiazol-2-yl)-[2,3′-bipyridin]-5-yl)-2,6-difluorobenzamide]
IC50: 0.1 to 1 µM
